{"source": "patent US20060095978A1", "about": "“Screening assay” (priority 2002, published 2006)", "key": {"[1]": {"tested_on": "IL-4", "assay": "Serum IL-4 in OVA323-339 stimulated DO11.10 mice (ELISA)", "type": "in vivo, mouse", "conditions": "for IL-4 level in pg/ml serum on day 0 after 0 hours: 0 hours (before injection)", "method": "Groups of six, 8-10 weeks old, male or female DO11.10 mice weighing between 20-22 g are obtained as described in Murphy K. M. et al. 1990, Science 250:1720-1722. The animals are maintained in Microvent positive air supply cages (22±1° C., 55±5% relative humidity, 50-70 changes of fresh air/hour and 12 hours day and night cycle) with sawdust bedding. Standard laboratory mouse chow (SNIFF, Soest, Germany) and drinking water is given ad libidum. The animals are used for the study after an adaptation period of 10-14 days and grouped (6 per group) in type II Macrolon cages one day before the experiment.\nGroups of six DO11.10 mice are i.p. injected with 10 μg of ovalbumin (OVA, Sigma, St. Louis, USA) absorbed to 2 mg of Al(OH)3 (Alu Gel S; 2% Al(OH)3, Serva, Heidelberg, FRG) and diluted with saline to a volume of 0.2 ml or various amounts (1, 3, 10, 30, or 90 μg per mouse) of alum-precipitated OVA323-339 peptide (98% purity, piChem R&D, Graz Austria) in 0.2 ml on days 0 and 14. Before and at different time points on days 0 and 14 after the OVA or OVA323-339 peptide administration about 200 μl of blood are collected by puncture of the retro-orbital plexus under ether anesthesia.\nThe sera are collected and stored frozen at −20° C. until analyzed. […]\nMurine IL-2, IFN-γ and IL-4 are analyzed by immunoassays (Quantikine R&D Systems, Minneapolis, Minn., USA). Results are expressed as pg per ml serum expressed as mean±SEM pg of the cytokine indicated per ml serum. Test and control groups are evaluated by Dunn test by Kruskall-Wallis One Way Anova using the SigmaStat® program.\nSerum IL-4 levels after primary and secondary OVA323-339 peptide antigen stimulation are shown in TABLE 3: Groups of 6 mice receive various doses (1, 3, 10, 30 and 90 μg/mouse) of alum-precipitated OVA323-339 peptide i.p. on day 0 and 14. Animals of the control group are injected with alum. Blood is collected before and at 2, 4, and 6 hours after the first (A) and after the second peptide injection (B). IL-4 is determined in the sera by an ELISA. Results are expressed as mean pg per ml serum±SEM. […]"}, "[2]": {"tested_on": "IL-1β", "assay": "Serum IL-1β in DO11.10 mice primed with OVA-peptide and challenged with LPS", "type": "in vivo, mouse", "method": "Animals are provided as described in Example 2a).\nb) Administration of OVA323-339 (=OVA-peptide) and LPS Groups of six DO11.10 mice receive i.p. 30 μg of OVA323-339 peptide (98% purity, pi Chem R&D, Graz Austria) in 0.2 ml 0.9% saline per mouse. Control mice are injected i.p. with the same amount of saline.\n18 hours later the mice are challenged i.p. with 100, 300 or 500 μg LPS (E. coli 0111: B4 Sigma Vienna, Austria). At 2, 4 and 6 hours after the LPS administration about 200 μl of blood are collected by puncture of the retro-orbital plexus under ether anesthesia. The sera are collected and stored frozen at −20° until analyzed.\nMurine IL-1α, IL-1β and TNF-α serum levels are determined by ELISAs (IL-1α and TNF-α, Bender MedSystems, Vienna Austria; IL-1β, Quantikine R&D Systems, Minneapolis, Minn.). Results are expressed as pg per ml serum. Differences in the serum cytokines concentrations between the different experimental groups are examined for statistical significance by the Mann-Whitney U test, two tailed. Results are expressed as the mean±SEM. p<0.05 is regarded as significant.\nValues of serum IL-1β responses in control DO11.10 mice challenged with various doses of LPS (=NaCl+LPS) and in mice primed with the OVA-peptide 18 hours prior to the LPS challenge (=OVA+LPS) are given in TABLE 7. The serum IL-1β levels are expressed as mean pg per ml serum±SEM."}}, "data": [{"substance": "OVA323-339: peptide derived from chicken ovalbumin containing amino acids from position 323 to 339 (KISQAVHAAHAEINEAG; UniProt P01012 323-339, looked up, fragment)", "values": [{"measurement": "IL-4 level in pg/ml serum on day 0 after 0 hours", "setting": "[1]; 1 μg OVA323-339 i.p.", "result": "25.770 ± 2.618", "unit": "pg/mL"}, {"measurement": "IL-4 level in pg/ml serum on day 0 after 2 hours", "setting": "[1]; 1 μg OVA323-339 i.p.", "result": "36.426 ± 5.871", "unit": "pg/mL"}, {"measurement": "IL-4 level in pg/ml serum on day 0 after 4 hours", "setting": "[1]; 1 μg OVA323-339 i.p.", "result": "4.094 ± 1.072", "unit": "pg/mL"}, {"measurement": "IL-4 level in pg/ml serum on day 0 after 6 hours", "setting": "[1]; 1 μg OVA323-339 i.p.", "result": "13.354 ± 4.010", "unit": "pg/mL"}, {"measurement": "change of IL-4 levels", "setting": "[1]; 1 μg of peptide, first injection", "result": "remain unchanged"}, {"measurement": "IL-4 level in pg/ml serum on day 0 after 0 hours", "setting": "[1]; 3 μg OVA323-339 i.p.", "result": "17.905 ± 3.616", "unit": "pg/mL"}, {"measurement": "IL-4 level in pg/ml serum on day 0 after 2 hours", "setting": "[1]; 3 μg OVA323-339 i.p.", "result": "37.706 ± 4.028", "unit": "pg/mL"}, {"measurement": "IL-4 level in pg/ml serum on day 0 after 4 hours", "setting": "[1]; 3 μg OVA323-339 i.p.", "result": "7.903 ± 0.957", "unit": "pg/mL"}, {"measurement": "IL-4 level in pg/ml serum on day 0 after 6 hours", "setting": "[1]; 3 μg OVA323-339 i.p.", "result": "11.051 ± 2.549", "unit": "pg/mL"}, {"measurement": "increase of serum IL-4 levels compared to alum control", "setting": "[1]; 3 μg of peptide, after 2 hours", "result": "only slightly"}, {"measurement": "IL-4 level in pg/ml serum on day 0 after 0 hours", "setting": "[1]; 10 μg OVA323-339 i.p.", "result": "16.296 ± 3.397", "unit": "pg/mL"}, {"measurement": "IL-4 level in pg/ml serum on day 0 after 2 hours", "setting": "[1]; 10 μg OVA323-339 i.p.", "result": "41.870 ± 9.751", "unit": "pg/mL"}, {"measurement": "IL-4 level in pg/ml serum on day 0 after 4 hours", "setting": "[1]; 10 μg OVA323-339 i.p.", "result": "18.804 ± 1.757", "unit": "pg/mL"}, {"measurement": "IL-4 level in pg/ml serum on day 0 after 6 hours", "setting": "[1]; 10 μg OVA323-339 i.p.", "result": "5.735 ± 2.226", "unit": "pg/mL"}, {"measurement": "increase of serum IL-4 levels compared to alum control", "setting": "[1]; 10 μg of peptide, after 2 hours", "result": "only slightly"}, {"measurement": "IL-4 level in pg/ml serum on day 0 after 0 hours", "setting": "[1]; 30 μg OVA323-339 i.p.", "result": "16.524 ± 2.209", "unit": "pg/mL"}, {"measurement": "IL-4 level in pg/ml serum on day 0 after 2 hours", "setting": "[1]; 30 μg OVA323-339 i.p.", "result": "93.594 ± 29.015", "unit": "pg/mL"}, {"measurement": "IL-4 level in pg/ml serum on day 0 after 4 hours", "setting": "[1]; 30 μg OVA323-339 i.p.", "result": "41.725 ± 10.226", "unit": "pg/mL"}, {"measurement": "IL-4 level in pg/ml serum on day 0 after 6 hours", "setting": "[1]; 30 μg OVA323-339 i.p.", "result": "17.173 ± 2.069", "unit": "pg/mL"}, {"measurement": "rise of serum IL-4 levels", "setting": "[1]; 30 μg of peptide, at 2 hours", "result": 3, "unit": "fold"}, {"measurement": "IL-4 level in pg/ml serum on day 0 after 2 hours", "setting": "[1]; 90 μg OVA323-339 i.p.", "result": "273.017 ± 95.997", "unit": "pg/mL"}, {"measurement": "IL-4 level in pg/ml serum on day 0 after 4 hours", "setting": "[1]; 90 μg OVA323-339 i.p.", "result": "146.940 ± 21.784", "unit": "pg/mL"}, {"measurement": "IL-4 level in pg/ml serum on day 0 after 6 hours", "setting": "[1]; 90 μg OVA323-339 i.p.", "result": "127.616 ± 7.397", "unit": "pg/mL"}, {"measurement": "rise of serum IL-4 levels", "setting": "[1]; 90 μg peptide, after 4 and 6 hours", "result": "7-8 fold"}, {"measurement": "increase of serum IL-4 levels", "setting": "[1]; 90 μg peptide, after 2 hours", "result": 14, "unit": "fold"}, {"measurement": "rise in the IL-4 levels after the second antigen stimulation", "setting": "[1]; second antigen stimulation (day 14)", "result": "up to several 100 fold"}, {"measurement": "change of IL-4 levels compared to the control", "setting": "[1]; second injection of 1 μg of peptide 2 weeks later", "result": "does not change"}, {"measurement": "IL-1β in OVA-peptide primed versus unprimed mice", "setting": "[2]; 100 μg LPS, 2 hours", "result": 1.6, "unit": "fold"}, {"measurement": "IL-1β in OVA-peptide primed versus unprimed mice", "setting": "[2]; 100 μg LPS, 4 hours", "result": 1.7, "unit": "fold"}, {"measurement": "IL-1β in OVA-peptide primed versus unprimed mice", "setting": "[2]; 100 μg LPS, 6 hours", "result": 7.8, "unit": "fold"}, {"measurement": "IL-1β in OVA-peptide primed versus unprimed mice", "setting": "[2]; 300 μg LPS, 2 hours", "result": 1.9, "unit": "fold"}, {"measurement": "IL-1β in OVA-peptide primed versus unprimed mice", "setting": "[2]; 300 μg LPS, 4 hours", "result": 2.7, "unit": "fold"}, {"measurement": "IL-1β in OVA-peptide primed versus unprimed mice", "setting": "[2]; 300 μg LPS, 6 hours", "result": 3.0, "unit": "fold"}, {"measurement": "IL-1β in OVA-peptide primed versus unprimed mice", "setting": "[2]; 500 μg LPS, 2 hours", "result": 3.5, "unit": "fold"}, {"measurement": "IL-1β in OVA-peptide primed versus unprimed mice", "setting": "[2]; 500 μg LPS, 4 hours", "result": 2.2, "unit": "fold"}, {"measurement": "IL-1β in OVA-peptide primed versus unprimed mice", "setting": "[2]; 500 μg LPS, 6 hours", "result": 5.7, "unit": "fold"}]}]}
